In brackets after ≈: the same amount, converted by molar mass. Activity calls are given as the source filed them. The calls are words filed in the database; no cut-off is given here.
What was measured:
[1] = Selectivity index, ratio of compound concentration showing <20 to <25% hemolysis in mouse RBC to MIC for fluconazole/ITC-resistant Candida albicans ATCC 64124; format: toxicity; conditions: red blood cells (erythrocytes), read-out: Selectivity Index
Candida albicans [2] = assay: Antifungal activity against fluconazole/ITC-resistant Candida albicans ATCC 10231 measured after 48 hrs by CLSI M27-A3 protocol based method; format: functional; conditions: ATCC 10231, 48 h
Aspergillus terreus = assay: Antifungal activity against Aspergillus terreus ATCC MYA-3633 measured after 48 hrs by CLSI M38-A2 protocol based method; format: functional; conditions: ATCC MYA-3633, 48 h
[3] = Selectivity index, ratio of CC50 for human A549 cells to MIC for Candida krusei ATCC 6258; format: toxicity; conditions: read-out: Selectivity Index
[4] = Hemolytic activity in mouse RBC at 3.9 ug/ml after 1 hr relative to control; format: ADME, cell-based, Erythrocyte; conditions: red blood cells (erythrocytes), read-out: Activity
[5] = Selectivity index, ratio of CC50 for human A549 cells to MIC for Candida parapsilosis ATCC 22019; format: toxicity; conditions: read-out: Selectivity Index
[6] = Selectivity index, ratio of compound concentration showing <20 to <25% hemolysis in mouse RBC to MIC for Aspergillus terreus ATCC MYA-3633; format: toxicity; conditions: red blood cells (erythrocytes), read-out: Selectivity Index
[7] = Selectivity index, ratio of CC50 for human A549 cells to MIC for Aspergillus terreus ATCC MYA-3633; format: toxicity; conditions: read-out: Selectivity Index
[8] = Selectivity index, ratio of compound concentration showing <20 to <25% hemolysis in mouse RBC to MIC for Candida parapsilosis ATCC 22019; format: toxicity; conditions: red blood cells (erythrocytes), read-out: Selectivity Index
[9] = Selectivity index, ratio of CC50 for human A549 cells to MIC for Aspergillus flavus ATCC MYA-3631; format: toxicity; conditions: read-out: Selectivity Index
Aspergillus flavus = assay: Antifungal activity against Aspergillus flavus ATCC MYA-3631 measured after 48 hrs by CLSI M38-A2 protocol based method; format: functional; conditions: ATCC MYA-3631, 48 h
[10] = Selectivity index, ratio of compound concentration showing <20 to <25% hemolysis in mouse RBC to MIC for fluconazole/ITC-resistant Candida albicans ATCC MYA-1237; format: toxicity; conditions: red blood cells (erythrocytes), read-out: Selectivity Index
[11] = Selectivity index, ratio of CC50 for human A549 cells to MIC for fluconazole/ITC-susceptible Candida albicans ATCC MYA-2310; format: toxicity; conditions: read-out: Selectivity Index
[12] = Selectivity index, ratio of CC50 for human A549 cells to MIC for fluconazole/ITC-resistant Candida albicans ATCC 90819; format: toxicity; conditions: read-out: Selectivity Index
Listeria monocytogenes = assay: Antibacterial activity against Listeria monocytogenes; format: functional, organism-based
[13] = Hemolytic activity in mouse RBC at […] after 1 hr relative to control; format: ADME, cell-based, Erythrocyte; conditions: red blood cells (erythrocytes), read-out: Activity; further: tested at 0.48 µg/mL
[14] = Selectivity index, ratio of compound concentration showing <20 to <25% hemolysis in mouse RBC to MIC for fluconazole/ITC-resistant Candida albicans ATCC 10231; format: toxicity; conditions: red blood cells (erythrocytes), read-out: Selectivity Index
Candida albicans [15] = assay: Antifungal activity against fluconazole/ITC-resistant Candida albicans ATCC 64124 measured after 48 hrs by CLSI M27-A3 protocol based method; format: functional; conditions: ATCC 64124, 48 h
A549 = assay: Cytotoxicity against human A549 cells after 24 hrs by resazurin based assay; format: cell-based; conditions: a549, 24 h
[16] = Selectivity index, ratio of compound concentration showing <20 to <25% hemolysis in mouse RBC to MIC for fluconazole/ITC-susceptible Candida albicans ATCC MYA-2310; format: toxicity; conditions: red blood cells (erythrocytes), read-out: Selectivity Index
[17] = Selectivity index, ratio of CC50 for human A549 cells to MIC for fluconazole/ITC-resistant Candida albicans ATCC 64124; format: toxicity; conditions: read-out: Selectivity Index
Enterococcus = assay: Antibacterial activity against vancomycin-resistant Enterococcus; format: functional, organism-based
Candida albicans [18] = assay: Antifungal activity against fluconazole/ITC-susceptible Candida albicans ATCC MYA-2876 measured after 48 hrs by CLSI M27-A3 protocol based method; format: functional; conditions: ATCC MYA-2876, 48 h
[19] = Selectivity index, ratio of CC50 for human A549 cells to MIC for fluconazole/ITC-resistant Candida albicans ATCC 10231; format: toxicity; conditions: read-out: Selectivity Index
Nakaseomyces glabratus = assay: Antifungal activity against Candida glabrata ATCC 2001 measured after 48 hrs by CLSI M27-A3 protocol based method; format: functional; conditions: CBS 138, 48 h
[20] = Hemolytic activity in mouse RBC at […] ug/ml after 1 hr relative to control; format: ADME, cell-based, Erythrocyte; conditions: red blood cells (erythrocytes), read-out: Activity
[21] = Selectivity index, ratio of CC50 for human A549 cells to MIC for Aspergillus nidulans ATCC 38163; format: toxicity; conditions: read-out: Selectivity Index
[22] = Selectivity index, ratio of CC50 for human A549 cells to MIC for fluconazole/ITC-resistant Candida albicans ATCC MYA-1237; format: toxicity; conditions: read-out: Selectivity Index
[23] = Selectivity index, ratio of compound concentration showing <20 to <25% hemolysis in mouse RBC to MIC for fluconazole/ITC-susceptible Candida albicans ATCC MYA-2876; format: toxicity; conditions: red blood cells (erythrocytes), read-out: Selectivity Index
Candida albicans [24] = assay: Antifungal activity against fluconazole/ITC-resistant Candida albicans ATCC MYA-1003 measured after 48 hrs by CLSI M27-A3 protocol based method; format: functional; conditions: ATCC MYA-1003, 48 h
[25] = Selectivity index, ratio of compound concentration showing <20 to <25% hemolysis in mouse RBC to MIC for fluconazole/ITC-resistant Candida albicans ATCC 90819; format: toxicity; conditions: red blood cells (erythrocytes), read-out: Selectivity Index
[26] = Selectivity index, ratio of compound concentration showing <20 to <25% hemolysis in mouse RBC to MIC for Candida krusei ATCC 6258; format: toxicity; conditions: red blood cells (erythrocytes), read-out: Selectivity Index
[27] = Selectivity index, ratio of compound concentration showing <20 to <25% hemolysis in mouse RBC to MIC for Aspergillus flavus ATCC MYA-3631; format: toxicity; conditions: red blood cells (erythrocytes), read-out: Selectivity Index
Aspergillus nidulans = assay: Antifungal activity against Aspergillus nidulans ATCC 38163 measured after 48 hrs by CLSI M38-A2 protocol based method; format: functional; conditions: ATCC 38163, 48 h
[28] = Hemolytic activity in mouse RBC at 62.5 ug/ml after 1 hr relative to control; format: ADME, cell-based, Erythrocyte; conditions: red blood cells (erythrocytes), read-out: Activity
Candida albicans [29] = assay: Antifungal activity against fluconazole/ITC-resistant Candida albicans ATCC 90819 measured after 48 hrs by CLSI M27-A3 protocol based method; format: functional; conditions: ATCC 90819, 48 h
[30] = Hemolytic activity in mouse RBC at 7.8 ug/ml after 1 hr relative to control; format: ADME, cell-based, Erythrocyte; conditions: red blood cells (erythrocytes), read-out: Activity
[31] = Selectivity index, ratio of compound concentration showing <20 to <25% hemolysis in mouse RBC to MIC for fluconazole/ITC-resistant Candida albicans ATCC MYA-1003; format: toxicity; conditions: red blood cells (erythrocytes), read-out: Selectivity Index
Candida albicans [32] = assay: Antifungal activity against fluconazole/ITC-resistant Candida albicans ATCC MYA-1237 measured after 48 hrs by CLSI M27-A3 protocol based method; format: functional; conditions: ATCC MYA-1237, 48 h
[33] = Selectivity index, ratio of compound concentration showing <20 to <25% hemolysis in mouse RBC to MIC for Candida glabrata ATCC 2001; format: toxicity; conditions: red blood cells (erythrocytes), read-out: Selectivity Index
[34] = Selectivity index, ratio of CC50 for human A549 cells to MIC for fluconazole/ITC-resistant Candida albicans ATCC MYA-1003; format: toxicity; conditions: read-out: Selectivity Index
Candida albicans [35] = assay: Antifungal activity against fluconazole/ITC-susceptible Candida albicans ATCC MYA-2310 measured after 48 hrs by CLSI M27-A3 protocol based method; format: functional; conditions: ATCC MYA-2310, 48 h
Candida parapsilosis = assay: Antifungal activity against Candida parapsilosis ATCC 22019 measured after 48 hrs by CLSI M27-A3 protocol based method; format: functional; conditions: Lodderomyces parapsilosis, ATCC 22019, 48 h
[36] = Selectivity index, ratio of CC50 for human A549 cells to MIC for fluconazole/ITC-susceptible Candida albicans ATCC MYA-2876; format: toxicity; conditions: read-out: Selectivity Index
[37] = Hemolytic activity in mouse RBC at 31.3 ug/ml after 1 hr relative to control; format: ADME, cell-based, Erythrocyte; conditions: red blood cells (erythrocytes), read-out: Activity
BEAS-2B = assay: Cytotoxicity against human BEAS2B cells after 24 hrs by resazurin based assay; format: cell-based
[38] = Selectivity index, ratio of CC50 for human A549 cells to MIC for Candida glabrata ATCC 2001; format: toxicity; conditions: read-out: Selectivity Index
Staphylococcus aureus = assay: Antibacterial activity against methicillin-resistant Staphylococcus aureus; format: functional, organism-based
Pichia kudriavzevii = assay: Antifungal activity against Candida krusei ATCC 6258 measured after 48 hrs by CLSI M27-A3 protocol based method; format: functional; conditions: ATCC 6258, 48 h
[39] = Selectivity index, ratio of compound concentration showing <20 to <25% hemolysis in mouse RBC to MIC for Aspergillus nidulans ATCC 38163; format: toxicity; conditions: red blood cells (erythrocytes), read-out: Selectivity Index
[40] = Hemolytic activity in mouse RBC at 1.95 ug/ml after 1 hr relative to control; format: ADME, cell-based, Erythrocyte; conditions: red blood cells (erythrocytes), read-out: Activity

## C(=N\Nc1ccccc1)/c1ccc(-c2ccc(/C=N/Nc3ccccc3)cc2)cc1
[1]
  selectivity ratio: 1 to 32
Candida albicans [2]
  MIC: 7.8 µg/mL (≈ 20 µM)
Aspergillus terreus
  MIC: 15.6 µg/mL (≈ 39.9 µM)
[3]
  selectivity ratio: 0.6
[4]
  hemolysis at 1 h, 3.9 ug/ml: 3.4%
[5]
  selectivity ratio: 0.6
[6]
  selectivity ratio: 1 to 32
[7]
  selectivity ratio: 1.1
[8]
  selectivity ratio: 1 to 32
[9]
  selectivity ratio: 4.5
Aspergillus flavus
  MIC: 3.9 µg/mL (≈ 9.99 µM)
[10]
  selectivity ratio: 1 to 32
[11]
  selectivity ratio: 0.6
[12]
  selectivity ratio: 0.6
Listeria monocytogenes
  Activity: inactive
[13]
  hemolysis at 1 h, […]: 2%
[14]
  selectivity ratio: 1 to 32
Candida albicans [15]
  MIC: > 31.3 µg/mL
A549
  CC50: 17.7 µg/mL (≈ 45.3 µM)
[16]
  selectivity ratio: 1 to 32
[17]
  selectivity ratio: 0.6
Enterococcus
  Activity: inactive
Candida albicans [18]
  MIC: > 31.3 µg/mL
[19]
  selectivity ratio: 2.3
Nakaseomyces glabratus
  MIC: > 31.3 µg/mL
[20]; at 15.6 µg/mL
  hemolysis at 1 h, 15.6 ug/ml: 14.1%
[20]
  hemolysis at 1 h, 0.975 ug/ml: 0.1%
[21]
  selectivity ratio: 9.1
[22]
  selectivity ratio: 0.6
[23]
  selectivity ratio: 1 to 32
Candida albicans [24]
  MIC: > 31.3 µg/mL
[25]
  selectivity ratio: 1 to 32
[26]
  selectivity ratio: 1 to 32
[27]
  selectivity ratio: 1 to 32
Aspergillus nidulans
  MIC: 1.95 µg/mL (≈ 4.99 µM)
[28]
  hemolysis at 1 h, 62.5 ug/ml: 17.2%
Candida albicans [29]
  MIC: 31.3 µg/mL (≈ 80.2 µM)
[30]
  hemolysis at 1 h, 7.8 ug/ml: 2.9%
[31]
  selectivity ratio: 1 to 32
Candida albicans [32]
  MIC: > 31.3 µg/mL
[33]
  selectivity ratio: 1 to 32
[34]
  selectivity ratio: 0.6
Candida albicans [35]
  MIC: > 31.3 µg/mL
Candida parapsilosis
  MIC: > 31.3 µg/mL
[36]
  selectivity ratio: 0.6
[37]
  hemolysis at 1 h, 31.3 ug/ml: 10.8%
BEAS-2B
  CC50: 11 µg/mL (≈ 28.2 µM)
[38]
  selectivity ratio: 0.6
Staphylococcus aureus
  Activity: inactive
Pichia kudriavzevii
  MIC: > 31.3 µg/mL
[39]
  selectivity ratio: 1 to 32
[40]
  hemolysis at 1 h, 1.95 ug/ml: 3.7%

From ChEMBL document CHEMBL4411307, “N,N'-diaryl-bishydrazones in a biphenyl platform: Broad spectrum antifungal agents” (Eur J Med Chem, 2019)
